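Values below derive from 48-hour exposures of cells grown in 96-well plates, with endpoints linearly interpolated between the two concentrations bracketing the appropriate inhibition level. Abbreviation: GI50, concentration required for 50% inhibition of growth.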 Calls of active or inactive are those of the source. Rule as the data show it: active = GI50 up to about 1.1 µM and inactive = higher.
Experiments:
Assay in all cases: NCI tumour cell line growth inhibition, 48 h
[1] = test system: 786-0
[2] = test system: BT-549
[3] = test system: CCRF-CEM
[4] = test system: COLO 205
[5] = test system: EKVX
[6] = test system: HCC 2998
[7] = test system: HOP-62
[8] = test system: HT-29
[9] = test system: KM12
[10] = test system: MCF7
[11] = test system: MDA-N
[12] = test system: NCI-H460
[13] = test system: NCI-H522
[14] = test system: NCI/ADR-RES
[15] = test system: OVCAR-3
[16] = test system: OVCAR-5
[17] = test system: OVCAR-8
[18] = test system: SN12C
[19] = test system: SNB-75
[20] = test system: SW-620

C=CCOc1ccc(C2(O)c3ccccc3C3=NCCCN32)cc1 (configuration not stated)
GI50 [1]: 38.3 µM (inactive)
GI50 [2]: > 100 µM (inactive)
GI50 [3]: 38 µM (inactive)
GI50 [4]: 19.9 µM (inactive)
GI50 [5]: 80.5 µM (inactive)
GI50 [6]: 24.6 µM (inactive)
GI50 [7]: 60.5 µM (inactive)
GI50 [8]: > 65.9 µM (inactive)
GI50 [9]: 44.5 µM (inactive)
GI50 [10]: 43.7 µM (inactive)
GI50 [11]: 36.1 µM (inactive)
GI50 [12]: > 100 µM (inactive)
GI50 [13]: 21.2 µM (inactive)
GI50 [14]: > 100 µM (inactive)
GI50 [15]: 46.3 µM (inactive)
GI50 [16]: 72.4 µM (inactive)
GI50 [17]: > 100 µM (inactive)
GI50 [18]: > 73.6 µM (inactive)
GI50 [19]: 32 µM (inactive)
GI50 [20]: 44 µM (inactive)

Nc1ccc2c(c1)N(C(=O)c1cc3cc(NC(=O)c4cc5ccccc5o4)ccc3[nH]1)CC2CCl (configuration not stated)
GI50 [1]: 0.0638 µM (active)
GI50 [2]: 0.164 µM (active)
GI50 [3]: 0.0405 µM (active)
GI50 [4]: 0.0904 µM (active)
GI50 [5]: 0.262 µM (active)
GI50 [6]: 0.0724 µM (active)
GI50 [7]: 0.138 µM (active)
GI50 [8]: 0.129 µM (active)
GI50 [9]: 0.115 µM (active)
GI50 [10]: 0.0221 µM (active)
GI50 [11]: 0.183 µM (active)
GI50 [12]: 0.0205 µM (active)
GI50 [13]: < 0.01 µM (active)
GI50 [14]: 0.0332 µM (active)
GI50 [15]: 0.0743 µM (active)
GI50 [16]: 0.114 µM (active)
GI50 [17]: 0.0397 µM (active)
GI50 [18]: 0.215 µM (active)
GI50 [19]: 0.153 µM (active)
GI50 [20]: 0.0973 µM (active)

C=C(C)[C@H]1C2=CC(C)=C(O2)[C@@H](O[C@@H]2c3oc(cc3C)[C@H](C(=C)C)[C@H]3C=C(CC[C@H]2C(=C)C)C(=O)O3)[C@H](C(=C)C)CCC2=C[C@H]1OC2=O
GI50 [1]: > 100 µM (inactive)
GI50 [2]: > 100 µM (inactive)
GI50 [3]: > 100 µM (inactive)
GI50 [4]: > 100 µM (inactive)
GI50 [5]: > 100 µM (inactive)
GI50 [6]: > 100 µM (inactive)
GI50 [7]: 81.1 µM (inactive)
GI50 [9]: > 100 µM (inactive)
GI50 [10]: > 100 µM (inactive)
GI50 [11]: > 100 µM (inactive)
GI50 [12]: > 100 µM (inactive)
GI50 [13]: > 100 µM (inactive)
GI50 [14]: > 100 µM (inactive)
GI50 [15]: > 100 µM (inactive)
GI50 [16]: > 100 µM (inactive)
GI50 [17]: > 100 µM (inactive)
GI50 [18]: > 100 µM (inactive)
GI50 [19]: > 100 µM (inactive)
GI50 [20]: > 100 µM (inactive)

Cc1ccc(-c2n[nH]c(=O)n2N)cc1
GI50 [1]: > 100 µM (inactive)
GI50 [2]: > 100 µM (inactive)
GI50 [3]: > 100 µM (inactive)
GI50 [4]: > 100 µM (inactive)
GI50 [5]: > 100 µM (inactive)
GI50 [6]: > 100 µM (inactive)
GI50 [7]: > 100 µM (inactive)
GI50 [8]: > 100 µM (inactive)
GI50 [9]: > 100 µM (inactive)
GI50 [10]: > 100 µM (inactive)
GI50 [11]: > 100 µM (inactive)
GI50 [12]: > 100 µM (inactive)
GI50 [13]: > 100 µM (inactive)
GI50 [14]: > 100 µM (inactive)
GI50 [15]: > 100 µM (inactive)
GI50 [16]: > 100 µM (inactive)
GI50 [17]: > 100 µM (inactive)
GI50 [18]: > 100 µM (inactive)
GI50 [19]: 48 µM (inactive)
GI50 [20]: > 100 µM (inactive)

Nc1nc(NCc2ccccc2)cc(NCc2ccccc2)n1
GI50 [1]: 4.92 µM (inactive)
GI50 [2]: 7.55 µM (inactive)
GI50 [3]: 4.24 µM (inactive)
GI50 [4]: 2.97 µM (inactive)
GI50 [5]: 9.93 µM (inactive)
GI50 [6]: 8.95 µM (inactive)
GI50 [7]: 12.8 µM (inactive)
GI50 [8]: 2.88 µM (inactive)
GI50 [9]: 4.28 µM (inactive)
GI50 [10]: 2.59 µM (inactive)
GI50 [11]: 1.14 µM (inactive)
GI50 [12]: 4.73 µM (inactive)
GI50 [13]: 4.24 µM (inactive)
GI50 [14]: 3.23 µM (inactive)
GI50 [15]: 3.69 µM (inactive)
GI50 [16]: 16.9 µM (inactive)
GI50 [17]: 4.11 µM (inactive)
GI50 [18]: 4.57 µM (inactive)
GI50 [19]: 3.23 µM (inactive)
GI50 [20]: 5.21 µM (inactive)

Cn1c2ccccc2n2c3ncccc3c(=S)c(C#N)c12
GI50 [1]: 75.7 µM (inactive)
GI50 [2]: > 100 µM (inactive)
GI50 [3]: > 100 µM (inactive)
GI50 [4]: > 100 µM (inactive)
GI50 [5]: > 100 µM (inactive)
GI50 [6]: > 100 µM (inactive)
GI50 [7]: > 100 µM (inactive)
GI50 [8]: > 100 µM (inactive)
GI50 [9]: > 100 µM (inactive)
GI50 [10]: > 100 µM (inactive)
GI50 [11]: > 100 µM (inactive)
GI50 [12]: 90.4 µM (inactive)
GI50 [13]: > 100 µM (inactive)
GI50 [14]: > 100 µM (inactive)
GI50 [15]: > 100 µM (inactive)
GI50 [16]: > 100 µM (inactive)
GI50 [17]: > 100 µM (inactive)
GI50 [18]: > 100 µM (inactive)
GI50 [19]: 40.3 µM (inactive)
GI50 [20]: > 100 µM (inactive)

Cc1c(C#N)c2ccccc2c2nc3ccccc3n12
GI50 [1]: 37.9 µM (inactive)
GI50 [2]: > 100 µM (inactive)
GI50 [3]: > 100 µM (inactive)
GI50 [5]: > 100 µM (inactive)
GI50 [6]: 64.3 µM (inactive)
GI50 [7]: 75.5 µM (inactive)
GI50 [9]: > 100 µM (inactive)
GI50 [10]: 50.9 µM (inactive)
GI50 [11]: 67.6 µM (inactive)
GI50 [12]: 27.7 µM (inactive)
GI50 [13]: 16.4 µM (inactive)
GI50 [14]: > 100 µM (inactive)
GI50 [15]: > 100 µM (inactive)
GI50 [16]: > 100 µM (inactive)
GI50 [17]: > 100 µM (inactive)
GI50 [18]: 63.2 µM (inactive)
GI50 [19]: 73.3 µM (inactive)
GI50 [20]: 81.3 µM (inactive)

Reference: ChEMBL document CHEMBL1201862, “PubChem BioAssay data set” (2004)
